# Test results taken from US20250276993A1, “PSEUDO-DISACCHARIDE COMPOUNDS” (UNIVERSITEIT LEIDEN, priority 2022, published 2025).
# What was measured:
# HPSE [1] = molecular target: T1, HPSE (Homo sapiens, UniProt Q9Y251); assay: cABPP Assay 1, recombinant HPSE; assay type: biochemical
# T1 sequence (Q9Y251 36-109 limits assumed): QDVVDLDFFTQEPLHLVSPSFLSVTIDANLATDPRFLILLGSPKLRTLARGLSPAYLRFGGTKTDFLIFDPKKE
# T1 sequence (Q9Y251 158-543 limits assumed): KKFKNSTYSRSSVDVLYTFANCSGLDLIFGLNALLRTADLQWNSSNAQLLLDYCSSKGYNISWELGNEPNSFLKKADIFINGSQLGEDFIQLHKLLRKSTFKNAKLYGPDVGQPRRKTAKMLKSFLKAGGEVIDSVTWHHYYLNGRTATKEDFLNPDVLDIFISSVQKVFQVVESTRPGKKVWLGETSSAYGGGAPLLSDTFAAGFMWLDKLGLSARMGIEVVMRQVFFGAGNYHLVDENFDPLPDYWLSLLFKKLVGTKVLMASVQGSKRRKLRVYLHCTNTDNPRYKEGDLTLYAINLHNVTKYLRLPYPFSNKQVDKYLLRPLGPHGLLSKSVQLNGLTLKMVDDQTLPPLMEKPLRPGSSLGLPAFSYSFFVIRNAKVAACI
# human platelet HPSE = molecular target: T2, human platelet HPSE (Homo sapiens, UniProt Q9Y251); assay: cABPP with fluorescence quantitation, platelet lysates, HPSE; assay type: biochemical; conditions: read-out: IC50 platelet HPSE inhibition
# T2 construct: endogenous in cells; host or cells: human platelet lysates
# T2 sequence (Q9Y251 158-543 limits assumed): T1 sequence (Q9Y251 158-543 limits assumed)
# T2 sequence (Q9Y251 36-109 limits assumed): T1 sequence (Q9Y251 36-109 limits assumed)
# Protocol: ABP labelling reactions were carried out in Mcllvaine buffer (pH 5.5), 300 mM NaCl. For recombinant proteins 200 fmol of EcGH2, BpHep, AcGH79, HPSE or proHPSE was used (20 nM in 10 μl final reaction volume). For labeling cell lysates, 4-20 μg total protein was used. Labeling reactions were initiated by the addition of ABP compounds 7, 8 or 9 to a final concentration of 100 nM (unless otherwise specified), before incubation for 30 min at 37° C. with shaking. Following labeling, samples were denatured by boiling with Laemmli buffer for 5 min and resolved by SDS-PAGE. Gels were scanned using Typhoon-5 laser scanner platform (Cytiva), using the λEX 635 nm laser and 670BP30 emission filter. For competitive ABPP (cABPP) experiments, protein mixtures were preincubated with inhibitor (or buffer only control) for 1 h at 37° C. with shaking, before the addition of 7 to a final concentration of 100 nM, and subsequent incubation for 30 min at 37° C. with shaking. SDS-PAGE and analysis steps were carried out as above. For quantitative measurements, fluorescently labeled band intensities were calculated using Imagequant (Cytiva), and normalized to the corresponding band in the inhibitor free control lane. cABPP plots were prepared and analyzed using SigmaPlot 14.0 (Systat).
# Further cABPP studies were undertaken using platelet lysates to provide a more physiologically realistic environment. […]
# HPSE [2] = molecular target: T1, HPSE; assay: Fondaparinux cleavage assay; assay type: biochemical
# HPSE [3] = molecular target: T1, HPSE; assay: HSPG digest assay, recombinant HPSE; assay type: biochemical
# Protocol: ECM coated 35 mm culture dishes containing ^35S labelled HS were prepared as previously described (Vlodavsky et al., Curr. Protoc. Cell. Biol., Chapter 10, Unit 10, 14). Briefly, bovine corneal endothelial cells were plated at an initial density of 2×10^5 cells/ml, with 4% dextran T-40 (Sigma) included in the growth medium. Na2^35SO4 (25 μCi/ml) was added to the incubation medium on days 2 and 5 after seeding. On day 12, subendothelial ECM is exposed by dissolving the cells with PBS containing 0.5% Triton X-100 and 20 mM NH4OH, followed by four washes with PBS. For HS-degradation assays, ECM coated dishes were incubated with 200 ng recombinant HPSE in 1 mL reaction mixture (10 mM buffer Phosphate-Citrate pH 6.0, 50 mM NaCl, 1 mM DTT, 1 mM CaCl2) containing HPSE inhibitors or DMSO control. Plates were incubated at 37° C. for 5 h, then assay medium collected and applied to a 0.9×30 cm Sepharose 6B size exclusion column. The Sepharose 6B column was eluted with PBS, and ^35S radioactivity of 0.2 mL fractions quantitated using a liquid scintillation analyzer (Packard BioScience). Digest assays with U87 cell lysates were carried out in a similar fashion, except plates were incubated for 18 h with cell extracts prepared from 1×10^6 U87 glioma cells lysed by 3× freeze/thaw cycles.
# The compounds of the invention were assessed against HPSE degradation of bona fide HSPGs in a physiologically relevant ECM-like environment. Cultured bovine corneal […] cells secrete a subendothelial basement membrane material rich in HSPGs, and their growth in the presence of ^35SO4^2− results in ^35S radiolabeled HSPGs (Vlodavsky et al., Curr Protoc Cell Biol, Chapter 10, Unit 10, 4, 2001). H^35S chains attached to these HSPGs are detectable after solubilization by HPSE, with enzyme inhibition leading to a corresponding reduction of signal.
# U87 glioblastoma cells = assay: Matrigel invasion assay; assay type: cell-based, human; conditions: 20 μM inhibitor, 4 h
# Protocol: The Matrigel invasion assay was used to assess the effects of the compounds of the invention on cancer cell aggression. This is an in cellulo model of cell invasion through a HSPG rich basement membrane. The ability of cells to migrate through transwell inserts coated with Matrigel (an ECM secretion from Engelbreth-Holm-Swarm mouse sarcoma cells) correlates well with their in vivo invasive potential (Hall et al., Methods Mol Biol, 1070, 1-11 (2014)).
# 1×10^5 U87 cells in 200 μL DMEM media (without serum) were seeded onto the top chamber of a Matrigel-coated Boyden transwell filter, alongside 20 μM HPSE inhibitor (or PBS control). Cells in the upper chamber were separated by Matrigel from a lower chamber containing 600 μL DMEM, supplemented with 10% FBS. Plates were incubated at 37° C. for 4 h, before fixing cells in 4% (v/v) paraformaldehyde, and staining with 0.5% (w/v) crystal violet. Matrigel and non-migrating cells in the upper side of the Boyden filter were removed by swabbing, then invading cells on the bottom side of the transwell filter imaged for analysis. 10 randomly selected microscopic fields were recorded, and cell invasion calculated using ImageJ, by quantitating the percentage of the field stained by crystal violet. Graphs were plotted using RStudio.
# The Matrigel invasion assay was used to assess the effects of the compounds of the invention on cancer cell aggression. […]
# HPSE [4] = molecular target: T1, HPSE; assay: X-ray crystallography, ligand soaking of HPSE crystals; conditions: crystal soaking
# Excerpt: Xray diffraction data were collected at 100 K at beamlines i03 (HPSE-2, HPSE-3, HPSE-4, EcGUSB-1, BpHep-3), i04 (AcGH79-2, BpHep-2) and i04-1 (Apo-AcGH79, AcGH79-1, AcGH79-3) of the Diamond Light Source UK. Reflections were autoprocessed using the XIA2 pipeline. Complexes were solved by directly refining against their unliganded structures where isomorphous, or else solved by molecular replacement with PHASER (search model PDB accessions: 5E98 (HPSE), 3VNY (AcGH79), 3K46 (EcGUSB), 5BWI (BpHep)). […] Ligand coordinates were built using jLigand. Diagrams were generated using PyMOL.
# HPSE—Well diffracting crystals of HPSE were obtained by the sitting-drop vapor-diffusion method at 20° C. using a well solution containing 0.1 M MES pH 5.5, 0.1 M MgCl2, 17% (w/v) PEG 3350, and a protein to well solution ratio of 200 nl:500 nl. Crystals typically appeared after 1 week. Inhibitor ligand complexes were obtained by transferring HPSE crystals to drops of well solution supplemented with 25% (v/v) ethylene glycol and 1-5 mM inhibitor. Crystals were incubated with ligand for ˜2-4 h, then directly harvested and flash-cooled in LN2 for data collection.
# To better understand the molecular basis of interaction between our inhibitors and their targets, we turned to X-ray crystallography, using ligand soaking to derivatize enzymes in crystallo.
smiles,measurement,setting,value
"CC(=O)N[C@H]1[C@@H](O[C@H]2[C@H](O)[C@@H](O)[C@@H]3O[C@@H]3[C@@H]2C(=O)O)O[C@H](COS(=O)(=O)O)[C@@H](O)[C@@H]1O [Compound 3, 4-O-(2-N-acetyl-2-deoxy-6-O-sulfo-D-glucopyranosyl)-glucurono-cyclophellitol]",HPSE inhibition (abrogation of labelling by ABP 7),"HPSE [1]; 1 h preincubation at 37° C., pH 5.5, 100 nM ABP 7",inhibited HPSE at nanomolar concentrations
same,potency against HPSE relative to other compounds,HPSE [1]; cABPP Assay 1,greater potency against HPSE than 2 and 4
same,IC50,human platelet HPSE,~56 nM
same,fold more potent than reference inhibitors #98 (10) and OGT2115 (11),HPSE [2],approximately 2 fold
same,inhibition of HPSE degradation of 35S-labelled HSPGs,"HPSE [3]; 200 ng recombinant HPSE, pH 6.0, 5 h","robust, dose dependent inhibition"
same,concentration giving comparable levels of inhibition,"HPSE [3]; HSPG digest, recombinant HPSE",1 µM
same,Matrigel invasion,U87 glioblastoma cells,significantly reduced Matrigel invasion
same,binding mode in HPSE active site cleft,HPSE [4],covalent linkages between their pseudo-anomeric carbons and the enzyme nucleophile Glu343
